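A five-concentration, 48-hour dose response in 96-well plates underlies each endpoint, interpolated linearly between surrounding concentrations. The concentration for 50% growth inhibition is given as GI50. At the TGI there is no net growth.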
Legend:
Experiment in all cases: NCI-60 cell line screen, 48 h
[1] = system: HOP-62 NSCLC
[2] = system: SR leukemia
[3] = system: SK-MEL-5 melanoma
[4] = system: HCC-2998 colon
[5] = system: HCT-116 colon
[6] = system: MDA-MB-231 breast
[7] = system: SF-268 CNS
[8] = system: MOLT-4 leukemia
[9] = system: UO-31 renal
[10] = system: HT29 colon
[11] = system: MALME-3M melanoma
[12] = system: SF-539 CNS
[13] = system: T-47D breast
[14] = system: A498 renal
[15] = system: NCI-H23 lung
[16] = system: DU-145 prostate
[17] = system: SK-MEL-2 melanoma
[18] = system: RXF 393 renal
[19] = system: HCT-15 colon
[20] = system: CCRF-CEM leukemia
[21] = system: K-562 leukemia
[22] = system: SK-OV-3 ovarian
[23] = system: NCI-H460 lung
[24] = system: HS 578T breast
[25] = system: LOX IMVI melanoma
[26] = system: NCI-H226 lung
[27] = system: MDA-MB-435
[28] = system: RPMI-8226 leukemia
[29] = system: OVCAR-4 ovarian
[30] = system: CAKI-1 renal
[31] = system: OVCAR-3 ovarian
[32] = system: SNB-19 CNS
[33] = system: SNB-75 CNS
[34] = system: MCF7 breast
[35] = system: NCI/ADR-RES ovarian
[36] = system: ACHN renal
[37] = system: OVCAR-8 ovarian
[38] = system: SW-620 colon
[39] = system: UACC-62 melanoma
[40] = system: KM12 colon
[41] = system: SF-295 CNS
[42] = system: HL-60(TB) leukemia
[43] = system: HOP-92 NSCLC
[44] = system: COLO 205 colon
[45] = system: 786-0 renal
[46] = system: UACC-257 melanoma
[47] = system: OVCAR-5 ovarian
[48] = system: PC-3 prostate
[49] = system: BT-549 breast
[50] = system: U251 CNS
[51] = system: SK-MEL-28 melanoma
[52] = system: NCI-H522 lung
[53] = system: A549 NSCLC
[54] = system: M14 melanoma
[55] = system: TK-10 renal
[56] = system: IGROV1 ovarian
[57] = system: SN12C renal

Work on `COc1cccc2c1O/C(=C\c1ncc([N+](=O)[O-])n1C)C2=O` yielded a GI50 [1] of 716 nM, a TGI [1] of 2250 nM and a GI50 [2] of less than 16.5 nM. The TGI [2] was 165 nM, the GI50 [3] was 186 nM and the TGI [3] was 502 nM. For the same molecule, the GI50 [4] was 1860 nM, the TGI [4] was 7570 nM and the GI50 [5] was 82.5 nM. The TGI [5] was 691 nM, the GI50 [6] was 310 nM and the TGI [6] was 1570 nM. For the same molecule, the GI50 [7] was 221 nM, the TGI [7] was 816 nM and the GI50 [8] was 68.9 nM. It also gave a TGI [8] of 1360 nM, a GI50 [9] of 173 nM and a TGI [9] of 622 nM. For the same molecule, the GI50 [10] was 154 nM, the TGI [10] was 599 nM and the GI50 [11] was 224 nM. The TGI [11] was 563 nM, the GI50 [12] was 1320 nM and the TGI [12] was 3510 nM. The GI50 [13] was 8250 nM, the TGI [13] was 52900 nM and the GI50 [14] was 1390 nM. The TGI [14] was 3420 nM, the GI50 [15] was 270 nM and the TGI [15] was 1310 nM. It also gave a GI50 [16] of 266 nM, a TGI [16] of 809 nM and a GI50 [17] of 242 nM. It also gave a TGI [17] of 607 nM, a GI50 [18] of 229 nM and a TGI [18] of 648 nM. For the same molecule, the GI50 [19] was 128 nM, the TGI [19] was 404 nM and the GI50 [20] was 53.7 nM. The TGI [20] was 384 nM, the GI50 [21] was 422 nM and the TGI [21] was 6220 nM. For the same molecule, the GI50 [22] was 911 nM, the TGI [22] was 4210 nM and the GI50 [23] was 203 nM. The TGI [23] was 603 nM, the GI50 [24] was 1040 nM and the TGI [24] was greater than 21000 nM. It also gave a GI50 [25] of 116 nM, a TGI [25] of 414 nM and a GI50 [26] of 1470 nM. For the same molecule, the TGI [26] was 4810 nM, the GI50 [27] was 133 nM and the TGI [27] was 290 nM. It also gave a GI50 [28] of 949 nM, a TGI [28] of 4110 nM and a GI50 [29] of 1920 nM. For the same molecule, the TGI [29] was 6230 nM, the GI50 [30] was 200 nM and the TGI [30] was 579 nM. The GI50 [31] was 236 nM, the TGI [31] was 632 nM and the GI50 [32] was 1300 nM. The TGI [32] was 5750 nM, the GI50 [33] was 1390 nM and the TGI [33] was 3970 nM. For the same molecule, the GI50 [34] was 467 nM, the TGI [34] was 5040 nM and the GI50 [35] was 277 nM. The TGI [35] was 2900 nM, the GI50 [36] was 82.6 nM and the TGI [36] was 332 nM. It also gave a GI50 [37] of 167 nM, a GI50 [38] of 74.7 nM and a TGI [38] of 1700 nM. It also gave a GI50 [39] of 569 nM, a TGI [39] of 1670 nM and a GI50 [40] of 348 nM. It also gave a TGI [40] of 1550 nM, a GI50 [41] of 1270 nM and a TGI [41] of 4490 nM. It also gave a GI50 [42] of 234 nM, a TGI [42] of 1350 nM and a GI50 [43] of 343 nM. It also gave a TGI [43] of 1680 nM, a GI50 [44] of 254 nM and a TGI [44] of 1100 nM. For the same molecule, the GI50 [45] was 375 nM, the TGI [45] was 3890 nM and the GI50 [46] was 531 nM. For the same molecule, the TGI [46] was 4990 nM, the GI50 [47] was 1700 nM and the TGI [47] was 5820 nM. It also gave a GI50 [48] of 662 nM, a GI50 [49] of 413 nM and a TGI [49] of 2650 nM. The GI50 [50] was 745 nM, the TGI [50] was 3190 nM and the GI50 [51] was 239 nM. The TGI [51] was 607 nM, the GI50 [52] was 187 nM and the TGI [52] was 474 nM. It also gave a GI50 [53] of 509 nM, a TGI [53] of 3450 nM and a GI50 [54] of 218 nM. It also gave a TGI [54] of 719 nM, a GI50 [55] of 870 nM and a GI50 [56] of 303 nM. The TGI [56] was 2460 nM.
In the case of `COc1cc(-c2nn(-c3cccc(NC(=O)Nc4cccc(C(F)(F)F)c4)c3)cc2-c2ccncc2)ccc1Cl`, the GI50 [1] is reported as 923 nM, the TGI [1] is reported as 2880 nM and the GI50 [2] is reported as 858 nM. The TGI [2] was 2620 nM, the GI50 [3] was 622 nM and the TGI [3] was 1270 nM. It also gave a GI50 [4] of 1380 nM, a TGI [4] of 4710 nM and a GI50 [5] of 608 nM. For the same molecule, the TGI [5] was 6090 nM, the GI50 [6] was 813 nM and the TGI [6] was 2230 nM. For the same molecule, the GI50 [7] was 1280 nM, the TGI [7] was 5010 nM and the GI50 [8] was 936 nM. It also gave a TGI [8] of 3480 nM, a GI50 [9] of 747 nM and a TGI [9] of 3040 nM. For the same molecule, the GI50 [57] was 817 nM, the TGI [57] was 10500 nM and the GI50 [10] was 775 nM. The TGI [10] was 2090 nM, the GI50 [11] was 845 nM and the TGI [11] was 2180 nM. The GI50 [12] was 958 nM, the TGI [12] was 2560 nM and the GI50 [13] was 638 nM. For the same molecule, the TGI [13] was 11400 nM, the GI50 [14] was 609 nM and the TGI [14] was 3030 nM. For the same molecule, the GI50 [15] was 769 nM, the TGI [15] was 3020 nM and the GI50 [16] was 1360 nM. It also gave a TGI [16] of 22800 nM, a GI50 [17] of 935 nM and a TGI [17] of 1940 nM. For the same molecule, the GI50 [18] was 798 nM, the TGI [18] was 1950 nM and the GI50 [19] was 957 nM. The TGI [19] was 10800 nM, the GI50 [21] was 386 nM and the TGI [21] was 12100 nM. It also gave a GI50 [22] of 1700 nM, a TGI [22] of 15400 nM and a GI50 [23] of 478 nM. The TGI [23] was 2280 nM, the GI50 [24] was 1360 nM and the TGI [24] was 16600 nM. For the same molecule, the GI50 [25] was 789 nM, the TGI [25] was 1650 nM and the GI50 [26] was 1210 nM. The TGI [26] was 14800 nM, the GI50 [27] was 794 nM and the TGI [27] was 1980 nM. It also gave a GI50 [28] of 241 nM, a TGI [28] of 1830 nM and a GI50 [29] of 996 nM. For the same molecule, the TGI [29] was 13800 nM, the GI50 [30] was 952 nM and the TGI [30] was 3100 nM. The GI50 [31] was 343 nM, the TGI [31] was 1590 nM and the GI50 [32] was 999 nM. For the same molecule, the TGI [32] was 6260 nM, the GI50 [33] was 1130 nM and the TGI [33] was 4100 nM. The GI50 [34] was 609 nM, the TGI [34] was 4700 nM and the GI50 [35] was 696 nM. It also gave a TGI [35] of 3580 nM, a GI50 [36] of 371 nM and a TGI [36] of 13600 nM. It also gave a GI50 [37] of 739 nM, a TGI [37] of 2700 nM and a GI50 [38] of 767 nM. The TGI [38] was 9430 nM, the GI50 [39] was 627 nM and the TGI [39] was 1480 nM. For the same molecule, the GI50 [40] was 422 nM, the TGI [40] was 2020 nM and the GI50 [41] was 229 nM. It also gave a TGI [41] of 926 nM, a GI50 [42] of 756 nM and a TGI [42] of 10100 nM. For the same molecule, the GI50 [43] was 251 nM, the TGI [43] was 921 nM and the GI50 [44] was 588 nM. It also gave a TGI [44] of 1430 nM, a GI50 [45] of 1120 nM and a TGI [45] of 3170 nM. For the same molecule, the GI50 [46] was 746 nM, the TGI [46] was 2090 nM and the GI50 [47] was 1520 nM. For the same molecule, the TGI [47] was 8410 nM, the GI50 [48] was 244 nM and the TGI [48] was 1550 nM. It also gave a GI50 [49] of 1230 nM, a TGI [49] of 4030 nM and a GI50 [50] of 467 nM. For the same molecule, the TGI [50] was 1230 nM, the GI50 [51] was 1060 nM and the TGI [51] was 3910 nM. The GI50 [52] was 451 nM, the TGI [52] was 1870 nM and the GI50 [53] was 723 nM. The TGI [53] was 14500 nM, the GI50 [54] was 759 nM and the TGI [54] was 2160 nM. The GI50 [55] was 1060 nM, the TGI [55] was 9260 nM and the GI50 [56] was 920 nM. For the same molecule, the TGI [56] was 3240 nM.

From PubChem BioAssay (NCI)
